According to PubChem BioAssay (NCI):
Where “and” joins values, the source holds several entries; their conditions need not be identical. Equal values may be shown once.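 1) Cells in 96-well plates. 2) Compound, 48 h, 5 concentrations. 3) Linear interpolation between surrounding doses. 4) Unreached endpoint = highest concentration. Here, GI50 denotes the concentration required for 50% inhibition of growth. Definition used: TGI = concentration required for complete inhibition of growth.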

Key:
Test in all cases: NCI anticancer screen, dose series, 48 h
[1] = system: HCT-116 colon
[2] = system: M14 melanoma
[3] = system: HS 578T breast
[4] = system: HOP-92 NSCLC
[5] = system: NCI-H23 lung
[6] = system: IGROV1 ovarian
[7] = system: SK-OV-3 ovarian
[8] = system: HCC-2998 colon
[9] = system: NCI-H226 lung
[10] = system: K-562 leukemia

In the case of `C=C1c2ccccc2C(=O)c2c1c1c(C(=O)OC)c(OC(=O)OCc3ccc([N+](=O)[O-])cc3)ccc1n2Cc1ccccc1`, the GI50 [1] is reported as 4480 nM, the TGI [1] is reported as 20.4 µM and the GI50 [2] is reported as 27.6 µM. It also gave a TGI [2] of over 100 µM, a GI50 [3] of 4.69 µM and a TGI [3] of over 100 µM. The GI50 [4] was 2290 nM, the TGI [4] was 7.59 µM and the GI50 [5] was 4.22 µM. The TGI [5] was 17.9 µM, the GI50 [6] was 14 µM and the TGI [6] was 41.9 µM. For the same molecule, the GI50 [7] was 23.8 µM, the TGI [7] was 57.6 µM and the GI50 [8] was 16700 nM. For the same molecule, the TGI [8] was 39 µM, the GI50 [9] was 19.6 µM and the TGI [9] was 44.1 µM. The GI50 [10] was 2550 nM and the TGI [10] was over 100 µM.
For `CN(C)C(=O)OCc1nc2c(N3CCOCC3)nc(-c3ccccc3)nc2n1C`, the GI50 [1] was 204 nM, the TGI [1] was 0.616 µM and the GI50 [2] was 0.609 µM. For the same molecule, the TGI [2] was 1.9 µM, the GI50 [3] was 1.42 µM and the TGI [3] was 4.33 µM. The GI50 [4] was 399 nM, the TGI [4] was 1.24 µM and the GI50 [5] was 1.62 µM. For the same molecule, the TGI [5] was 3.35 µM, the GI50 [6] was 0.618 µM and the TGI [6] was 1.92 µM. The GI50 [7] was 4.06 µM, the TGI [7] was 13.5 µM and the GI50 [8] was 1560 nM. For the same molecule, the TGI [8] was 3.1 µM, the GI50 [9] was 1.69 µM and the TGI [9] was 3.65 µM. The GI50 [10] was 332 nM and the TGI [10] was 3.17 µM.
`CC[C@@]1(OC(=O)C(N)CCCCN)C(=O)OCc2c1cc1n(c2=O)Cc2cc3ccccc3nc2-1` (some centres not stated) gave a TGI [1] of 0.495 µM, a TGI [2] of 1.37 µM and a TGI [3] of over 100 µM. For the same molecule, the TGI [4] was 1.72 µM, the TGI [5] was 0.282 µM and the TGI [6] was 2.37 µM. For the same molecule, the TGI [7] was 12 µM, the TGI [8] was 2.11 µM and the TGI [9] was 2.7 µM. It also gave a TGI [10] of over 33.1 µM.
`Cc1ccc(Nc2cc(Cl)c([N+](=O)[O-])cc2[N+](=O)[O-])cc1` gave a GI50 [1] of 2590 nM, a TGI [1] of 6.94 µM and a GI50 [2] of 3.96 µM. The TGI [2] was 15.6 µM, the GI50 [3] was 7.63 µM and the TGI [3] was over 24.7 µM. It also gave a GI50 [4] of 2690 nM, a TGI [4] of 9.48 µM and a GI50 [5] of 3.66 µM. It also gave a TGI [5] of 14.2 µM, a GI50 [6] of 3.89 µM and a TGI [6] of 10.4 µM. For the same molecule, the GI50 [7] was 4.55 µM, the TGI [7] was 13.1 µM and the GI50 [8] was 2260 nM. The TGI [8] was 4.81 µM, the GI50 [9] was 2.59 µM and the TGI [9] was 6.81 µM. For the same molecule, the GI50 [10] was 614 nM and the TGI [10] was over 100 µM.
`c1ccc(CN2CCc3[nH]c4ccccc4c3C2)cc1` showed a TGI [1] of 43.6 µM, a TGI [2] of 33.1 µM and a TGI [3] of 79.9 µM. It also gave a TGI [4] of 62.1 µM, a TGI [5] of over 92.6 µM and a TGI [6] of over 79.5 µM. It also gave a TGI [7] of 98.4 µM, a TGI [8] of 30.1 µM and a TGI [9] of over 96.8 µM. The TGI [10] was 55.1 µM.
In the case of `O=C(O)C1CC=CCC1C(=O)Nc1cccc(O)c1` (configuration not stated), the TGI [1] is reported as over 100 µM, the TGI [2] is reported as over 100 µM and the TGI [3] is reported as over 100 µM. The TGI [4] was over 100 µM, the TGI [5] was over 100 µM and the TGI [6] was over 100 µM. It also gave a TGI [7] of over 100 µM, a TGI [8] of over 100 µM and a TGI [9] of over 100 µM. The TGI [10] was over 100 µM.
`COc1cccc(/C=C/c2nc3c(cnn3-c3ccccc3)c(=O)[nH]2)c1` showed a GI50 [1] of 12000 nM, a TGI [1] of over 100 µM and a GI50 [2] of over 39 µM. The TGI [2] was over 100 µM, the GI50 [3] was 13.7 µM and the TGI [3] was over 100 µM. For the same molecule, the GI50 [4] was over 100000 nM, the TGI [4] was over 100 µM and the GI50 [5] was over 100 µM. The TGI [5] was over 100 µM, the GI50 [6] was 13 µM and the TGI [6] was over 100 µM. The GI50 [7] was over 100 µM, the TGI [7] was over 100 µM and the GI50 [8] was over 100000 nM. It also gave a TGI [8] of over 100 µM, a GI50 [9] of over 100 µM and a TGI [9] of over 100 µM. For the same molecule, the TGI [10] was over 100 µM.
`CO[C@@H]1CCN(c2nccc(Nc3cc4c(C(C)C)ccc(N5CC(CS(C)(=O)=O)[C@H]5C)c4cn3)n2)C[C@@H]1F` (some centres not stated) showed a GI50 [1] of 3260 nM, a TGI [1] of over 100 µM and a GI50 [2] of 5.93 µM. For the same molecule, the TGI [2] was over 100 µM, the GI50 [3] was 4.26 µM and the TGI [3] was 41.5 µM. The GI50 [4] was 10600 nM, the TGI [4] was over 100 µM and the GI50 [5] was 3.7 µM. The TGI [5] was 20.4 µM, the GI50 [6] was 1.03 µM and the TGI [6] was 7.13 µM. For the same molecule, the GI50 [7] was 7.42 µM, the TGI [7] was over 100 µM and the GI50 [8] was 4550 nM. The TGI [8] was 36 µM, the GI50 [9] was 6.17 µM and the TGI [9] was 62.9 µM. The GI50 [10] was 2900 nM and the TGI [10] was over 100 µM.
Molecule `CC1=C(/C=C/C(=O)CC(=O)/C=C/C2=C(C)CCCC2(C)C)C(C)(C)CCC1` has a GI50 [1] of 27700 nM, a TGI [1] of over 100 µM and a GI50 [2] of 47.7 µM. The TGI [2] was over 100 µM, the GI50 [3] was 14.7 µM and the TGI [3] was 68.4 µM. The GI50 [4] was 28000 nM, the TGI [4] was over 100 µM and the GI50 [5] was 24.9 µM. For the same molecule, the TGI [5] was over 100 µM, the GI50 [6] was 21 µM and the TGI [6] was 88.5 µM. For the same molecule, the GI50 [7] was 40.6 µM, the TGI [7] was over 100 µM and the GI50 [8] was 35400 nM. For the same molecule, the TGI [8] was over 100 µM, the GI50 [9] was 23.3 µM and the TGI [9] was over 100 µM. It also gave a GI50 [10] of 18700 nM and a TGI [10] of over 100 µM.
Molecule `COCCOCCOCc1n(Cc2ccc3ccccc3c2)c2ccccc2[n+]1Cc1ccc2ccccc2c1` has a GI50 [1] of 385 nM, a TGI [1] of 1.65 µM and a GI50 [2] of 0.491 µM. The TGI [2] was 1.99 µM, the GI50 [3] was 1.14 µM and the TGI [3] was 2.96 µM. The GI50 [4] was 149 nM, the TGI [4] was 0.829 µM and the GI50 [5] was 0.392 µM. For the same molecule, the TGI [5] was 1.73 µM, the GI50 [6] was 0.328 µM and the TGI [6] was 1.55 µM. For the same molecule, the GI50 [7] was 1.14 µM, the TGI [7] was 2.49 µM and the GI50 [8] was 560 nM. For the same molecule, the TGI [8] was 2.06 µM, the GI50 [9] was 0.957 µM and the TGI [9] was 2.53 µM. It also gave a GI50 [10] of 239 nM and a TGI [10] of 1.46 µM.
`CN1CCN(c2ccc(OC(F)(F)F)c(Nc3ncc4c(n3)-c3c(c(C(N)=O)nn3CCO)CC4)c2)CC1` was tested, and the GI50 [1] was 35.3 nM and 45.2 nM, the TGI [1] was 18.7 µM and > 10 µM and the GI50 [2] was 0.0404 µM and 0.0428 µM. For the same molecule, the GI50 [3] was 0.164 µM and 0.184 µM, the TGI [3] was 18.5 µM and > 5 µM and the GI50 [4] was 545 nM and 242 nM. For the same molecule, the TGI [4] was 14.3 µM and > 3.62 µM, the GI50 [5] was 0.0397 µM and 0.0732 µM and the TGI [5] was 17.6 µM and > 10 µM. The TGI [6] was 46.6 µM and > 10 µM, the GI50 [7] was 0.108 µM and 0.124 µM and the TGI [7] was 30.6 µM and > 10 µM. The GI50 [8] was 48.7 nM and 174 nM, the TGI [8] was 18.7 µM and > 4.38 µM and the GI50 [9] was 4.26 µM and 1.21 µM. For the same molecule, the TGI [9] was 50.4 µM and > 10 µM, the GI50 [10] was 37.5 nM and 26.9 nM and the TGI [10] was 19.6 µM.
